Laboratory results: patent US10842767B2, “Use of ketone esters for prevention of CNS oxygen toxicity” (University of South Florida, priority 2011, dated 2020)
Several values for one entry are separate records, joined by “and”; a condition that tells them apart may be missing. Identical values can stand only once. Entries after “also recorded” stand apart in the source; their conditions may differ. Like-named read-outs stand apart in the source and are kept apart here.

Assays:
[1] = test system: primary cultures of rat cortical neurons; experiment: Superoxide anion production (DHE fluorescence) in primary cortex neurons exposed to HBO2 or amyloid beta; format: cell-based; details: 60 min 5 ATA O2, NBO and HBO
Description: Primary dissociated neuronal cultures of the hippocampus and cortex are acquired from Brain Bits LLC, to increase time efficiency and to minimize cost associated with purchasing rats. Hippocampal or cortical tissue from Brain Bits (shipped in Hibernate®) are enzymatically and mechanically dissociated via pipette trituration. Neurons are plated on 12 mm glass coverslips and allowed to adhere for 1-2 hrs in an incubator maintained at 9-20% O2 in a humidified atmosphere. Cultures are maintained in media purchased from Brain Bits, including NbActiv1® and NbActive4. […] Fluorescent probes (for use with fluorescence and confocal microscopy)
List of fluorescence probes that will be purchased from Invitrogen: • Dihydroethidium, DHE (1-10 μM; Exλ 525, Emλ 590) detects intracellular ·O2^− generation (Bindokas et al. 1996; D'Agostino et al. 2007). • Calcein-AM (4 μM; Exλ 490, Emλ 535) detects cell volume and monitors cell viability (Crowe, 1995; Inglefield, 1998; Inglefield, 1999). • Ethidium Homodimer-1, EH-1 (6 μM; Exλ 525, Emλ 590) enters cells upon membrane damage and thus labels dead or dying cells (Bickler and Hansen 1998; Pinheiro et al. 2006). Fluorescence and Confocal Microscopy […]
Presence of intracellular ROS is measured by detection of superoxide anion using Dihydroethidium (DHE). […] Cells are washed in PBS and then visualized using fluorescent microscopy or quantified using spectrophotometry.

[2] = test system: rats exposed to 5 ATA O2 (CNS oxygen toxicity seizures); experiment: Latency to seizure (CNS-OT) in rats breathing hyperbaric oxygen at 5 ATA, radio-telemetry EEG; format: in vivo, rat; details: for increase in latency to seizure (LS) compared to control (water): rats, 5 ATA O2, ~10 g/kg (3 ml) gavage 30 min before dive
From the text: All animal procedures were done in accordance with the University of South Florida Institutional Animal Care and Use Committee (IACUC) guidelines. Adult male Sprague-Dawley rats (n=60), 250-300 grams, were obtained from Harlan, anesthetized in 3-5% isoflurane (in O2) and implanted with a 4ET radio-transmitter (Data Sciences International, DSI) using sterile surgical technique. One pair of leads (positive and negative poles) was implanted in the costal diaphragm at the junction with the abdominal wall for diaphragmatic electromyogram (dEMG) signals, one pair of electrodes was inserted in the pectoral muscle to acquire electrocardiogram (ECG) data, and two pairs of wires were embedded in the skull between Bregma and Lambda, with one lead on either side of midline for each pair (EEG recordings). The EMG wires were not inserted into crural diaphragmatic muscle because of the high risk of pneumothorax due to the thinness of the muscle (419 to 630 μm). 4ET radio-transmitters also monitored core body temperature and physical activity. Rats were weighed immediately before surgery and subsequently once every 7 days, just prior to the weekly exposures to HBO2. After surgery, every animal recovered for ≥1 week.
The radiotelemetry system consisted of an implantable 4ET radio-transmitter able to amplify and broadcast signals via a receiver (DSI PhysioTel, model RPC-2) connected to an acquisition interface unit (ACQ 7700 Ponemah) via electrical penetrations in the wall of the hyperbaric chamber. The acquisition interface unit was connected to a computer for real time data collection and storage. The same acquisition unit also recorded chamber pressure and temperature, which were measured, respectively, […] directly connected to the acquisition system via BNC (Bayonet Neill-Concelman) cables. Each animal was continuously monitored via a video camera (AXIS 221 Network Camera) and the video of each experiment was recorded as well.
The hyperbaric system consisted of two main elements: 1) a plexiglass chamber (˜3 liter capacity, Diamond Box, Buxco, Electronics Inc., model PLY3114), that housed the rat during the experiment, and 2) a hyperbaric chamber (Reimers System Inc.—7.8 ATA MWP), that contained the plexiglass chamber and functioned as the pressure vessel. Both chambers were connected to an air compressor (oil-less rotary scroll compressor—model DK6086, Powerex).
During each experiment (hyperbaric hyperoxia), both the main chamber and the animal chamber were filled with air. Rats were placed into the plexiglass chamber and allowed ten minutes to acclimate, at which time the plexiglass chamber was flushed with 100% O2. The animal was then allowed 15 minutes to acclimate before both chambers were compressed to 5 ATA (58.8 PSIG) at a rate of 0.7 ATA/min. […] Each experiment was visually monitored via a live camera. LS was calculated from the moment at which the internal and the external chambers reached 5 ATA until the onset of convulsions, identified as high-amplitude, high frequency spikes lasting 10 to 30 sec, followed by polyspikes and wave formation concurrent with tonic-clonic motions of forelimbs and head. […]
The details of this example are explained in the Materials and Methods section above. Briefly, the effects of ketone esters (KEs) in preventing CNS-OT in rats were assessed before, during and after HBO2 exposure by measuring various parameters. […]

[3] = for blood pH after administration (FIG. 20): from 7.45
[4] = Blood ketones (BHB, AcAc, acetone) and glucose after oral gavage; format: in vivo, rat; details: for blood BHB level versus control (words) / effect on blood glucose / blood AcAc / acetone level: ~10 g/kg gavage; for effect on blood glucose: over 4 hrs, relative to control (water); for blood AcAc / acetone level: acetone at 60 min; for duration of elevation of blood ketones: single oral/intragastric administration
Description: To determine the time course of ketosis, 18 adult male Sprague-Dawley rats (250-350 grams), pathogen-free, were purchased from a vendor (Harlan) and shipped 7 days after being implanted with carotid catheters. The rats were food (not water) deprived for 18 hours prior to the start of the experiment. […] Whole blood samples (10 μl) were acquired for analysis of glucose and BHB at USF utilizing a commercially available glucose/ketone monitoring system (Nova Max® Plus) at time 0, 30, 60, 120, 180 and 240 min. In addition, heparinized blood samples (200 μl) were collected into Eppendorf tubes at time 0, 30, 60, 120, 180 and 240 min. Samples were processed for the detection and quantification of BHB, AcAc, and acetone at Case Western Reserve University, Mouse Metabolic Phenotyping Center (MMPC). Briefly, samples were chilled on ice for 30 s, centrifuged in a micro-centrifuge (13,000 G) for 3-5 min and plasma (>100 μl), treated with reducing reagent of cold 0.2M sodium borodeuteride (NaBD4; Sigma, 205591, CAS 15681-89-7) dissolved in 0.1M NaOH (8.4 mg NaBD4 in 1 ml of 0.1M NaOH) and then immediately frozen on dry ice before storing at −80° C. Acetone was analyzed at the 60 minute time point, which was the predicted peak of blood AcAc levels (Desrochers et al. 1995). 300 μl of whole blood were collected in addition to the above collections, stabilized with cold 0.2M NaBD4, and then immediately frozen on dry ice. Samples were stored at −80° C. until analyzed for ketones. Internal standards of [^2H6]BHB or [^2H8]isopropanol were added to the treated plasma or blood samples (50 μl or 15 μl) and the BHB, AcAc (as M+1 of BHB) or acetone (as 2-propanol) metabolites were analyzed by gas chromatography-mass spectrometry (GC-MS) using an Agilent 5973 mass spectrometer, linked to a 6890 gas chromatograph equipped with an autosampler. Briefly, GC-MS conditions were either EI or CI mode (electron or chemical ionization mode); the samples were detected by selected ion monitoring as the BHB- and AcAc-trimethylsilyl derivatives (EI) or the derivative of acetone-pentafluorobenzoyl (CI). […]
Ketone measurements were taken at 30, 60, 120, 180 and 240 minutes. Blood plasma was treated with sodium borodeuteride (NaB2H4) to stabilize ketone concentration and then assayed by GC-MS. The rapid rise relating to blood ketones from BD-AcAc2 is due primarily from rapid desterfication in blood and tissues.

[5] = in vivo; cited from earlier work

Cc1ccccc1NC(=N)Nc1ccccc1C [DTG, 1,3,-di-o-tolylguanidine]
effect on superoxide production under hyperoxia [1]: prevented the hyperoxia-induced increase in superoxide production

CC(=O)CC(=O)OCCC(C)OC(=O)CC(C)=O (stereo not shown) [BD-AcAc2, R,S-1,3-butanediol acetoacetate diester]
increase in latency to seizure (LS) compared to control (water) [2]: > 570%
increase in latency to seizure (LS) compared to control (water) ([2]; listed as KE): 574±115% and 574±116%
increase in latency to seizure (LS) compared to control (water) ([2]; listed as dKE): 570%
mean decrease of blood pH compared to control (pH~7.5) ([3]; after about 30 minutes): 0.05
mean decrease of blood pH compared to control (pH~7.5) ([3]; after about one hour): 0.1
blood pO2 ([3]; during the 4 hour experiment): > 120 mmHg
blood pH after administration (FIG. 20) [3]: 7.35
increase in blood pO2 levels ([3]; significant and sustained): approximately 30%
total ketones ([4]; about 30 minutes after gavage): > 5 mM
total blood ketones (BHB, AcAc and acetone) ([4]; after 1 hr, average): > 6 mM
blood AcAc level ([4]; rats, 10 g/kg oral gavage): > 3 mM
blood BHB level ([4]; rats, 10 g/kg oral gavage): > 3 mM
blood BHB level versus control (words) ([4]; rats): significant increase in BHB and AcAc at 30 minutes
effect on blood glucose ([4]; rats): does not elevate blood glucose
effect on blood glucose ([4]; rats, listed as KE): no significant effect on blood glucose levels
blood AcAc / acetone level ([4]; rats, listed as KE): significantly higher at 60 minutes; also recorded: increased significantly
sustained elevation of total ketones ([4]; single oral administration, for over 4 hrs): > 6 mM
duration of elevation of blood ketones [4]: over 4 h
duration of elevation of blood ketones ([4]; listed as KE): 4 h and > 4 h
blood acetone level ([4]; within about 60 minutes after administration): ~0.7 mM

(R)-1,3-butanediol ester [BHB ester, reference compound]
blood BHB level versus control (words) ([4]; rats): elevated blood levels of β-hydroxybutyrate

C[C@H](O)CCO [BD, R,S-1,3-butanediol, reference compound]
acidosis ([3]; acute administration): mild nonpathological acidosis
mean decrease of blood pH compared to control (pH~7.5) ([3]; after about 30 minutes): 0.05
mean decrease of blood pH compared to control (pH~7.5) ([3]; after about one hour): 0.1
blood pH after administration (FIG. 20) [3]: 7.35
blood BHB level ([4]; rats, 10 g/kg oral gavage): > 5 mM
blood BHB level versus control (words) ([4]; rats): significant increase in BHB
effect on blood glucose ([4]; rats): no significant effect on blood glucose levels
blood AcAc / acetone level ([4]; rats): only modest elevation in AcAc; also recorded: remained low or undetectable
blood BHB level versus control (words) ([4]; rats, listed as 1,3-butanediol): elevated blood levels of β-hydroxybutyrate

CC(=O)CC(=O)OCCC(C)O (stereo not shown) [BD-AcAc, R,S-1,3-butanediol acetoacetate monoester]
latency to seizure, single rat EEG (FIG. 7) ([2]; HBO2 at 60 PSI (5 ATA O2), same rat without ketone ester about 8 minutes): 110 min
increase in latency to seizure (LS) compared to control (water) [2]: 285%

MCT oil
level of ketones produced by supplementation [5]: < 500 µM
